In assay [1] the target is Prostaglandin G/H synthase 1 (Homo sapiens) (UniProt P23219). As to conditions: at 100 µM.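 Also: COX-1 enzyme inhibition, read out colorimetrically.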
Description: Inhibition of COX1 (unknown origin) at 100 uM by colorimetric method
Assay [2] addresses T1, Prostaglandin G/H synthase 2 (Homo sapiens) (UniProt P35354).
T1 sequence (whole entry): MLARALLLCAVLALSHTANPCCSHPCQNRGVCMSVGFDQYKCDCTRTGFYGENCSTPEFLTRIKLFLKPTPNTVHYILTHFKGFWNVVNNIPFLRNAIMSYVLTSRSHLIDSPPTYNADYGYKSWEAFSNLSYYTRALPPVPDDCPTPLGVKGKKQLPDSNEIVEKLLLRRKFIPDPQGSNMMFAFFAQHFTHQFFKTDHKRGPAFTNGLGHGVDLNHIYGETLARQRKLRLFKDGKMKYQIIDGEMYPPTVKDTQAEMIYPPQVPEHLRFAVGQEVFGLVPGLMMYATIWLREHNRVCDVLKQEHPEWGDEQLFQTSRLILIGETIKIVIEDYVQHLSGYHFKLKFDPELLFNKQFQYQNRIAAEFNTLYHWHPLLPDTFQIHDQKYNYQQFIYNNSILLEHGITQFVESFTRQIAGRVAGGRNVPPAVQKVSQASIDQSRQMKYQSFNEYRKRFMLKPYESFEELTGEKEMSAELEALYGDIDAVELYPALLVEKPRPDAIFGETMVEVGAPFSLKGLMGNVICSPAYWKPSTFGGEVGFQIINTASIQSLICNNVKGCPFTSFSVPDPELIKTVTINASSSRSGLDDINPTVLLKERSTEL
The settings on record: at 100 µM.
Description: Inhibition of COX2 (unknown origin) at 100 uM by colorimetric method

The target of assay [3] is T2, Prostaglandin G/H synthase 2 (Homo sapiens, UniProt P35354).
T2 sequence (P35354 whole entry): T1 sequence (whole entry)
Briefly: Inhibition of COX2 (unknown origin) by colorimetric method.

Broadly, the inhibition is the relative decrease from the control value, in per cent. As usually defined, the IC50 is the concentration that gives 50% inhibition. A low value points to greater potency in that assay.

Prostaglandin G/H synthase 1 (Homo sapiens), sequence (P23219 whole entry): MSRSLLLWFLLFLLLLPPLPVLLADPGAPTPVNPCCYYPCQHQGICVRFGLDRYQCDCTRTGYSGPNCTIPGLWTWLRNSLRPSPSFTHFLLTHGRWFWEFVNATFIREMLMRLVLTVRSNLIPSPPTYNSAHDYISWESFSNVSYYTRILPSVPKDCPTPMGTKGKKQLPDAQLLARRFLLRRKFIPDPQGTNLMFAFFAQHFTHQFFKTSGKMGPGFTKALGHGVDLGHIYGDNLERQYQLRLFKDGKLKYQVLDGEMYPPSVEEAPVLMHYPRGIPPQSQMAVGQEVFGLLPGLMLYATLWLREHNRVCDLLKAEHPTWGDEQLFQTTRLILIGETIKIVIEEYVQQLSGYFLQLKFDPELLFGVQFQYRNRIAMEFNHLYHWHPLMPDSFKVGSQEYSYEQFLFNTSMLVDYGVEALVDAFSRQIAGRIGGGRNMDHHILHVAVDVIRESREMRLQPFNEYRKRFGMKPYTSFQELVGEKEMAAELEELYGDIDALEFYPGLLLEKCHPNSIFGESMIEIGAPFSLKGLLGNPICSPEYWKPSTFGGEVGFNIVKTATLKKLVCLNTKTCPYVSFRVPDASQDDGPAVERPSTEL

On to `CCOC(=O)/C(=C/c1ccc(CC)cc1)CSc1nc(C)cc(C)n1`, for which the inhibition was 55.1% in assay [1] and 76.5% in assay [2].

`COC(=O)/C(=C/c1ccc(F)cc1)CSc1nc2ccccc2o1`: the inhibition in assay [1] worked out at 47.8%; in assay [2], 72%.

Regarding `CCOC(=O)/C(=C/c1ccc(Br)cc1)CSc1nc(C)cc(C)n1`, inhibition in assay [3] was half-maximal at 3.17 µM (IC50). The inhibition in assay [1] turned out to be 38.3%; in assay [2] it was 78.5%.

As to `CCOC(=O)/C(=C/c1cccc(Cl)c1)CSc1nc(C)cc(C)n1`, the midpoint of inhibition in assay [3], the IC50, lay at 5.88 µM. Also, the inhibition in assay [1] stood at 24.4%; in assay [2], 78.6%.

On to `CCc1ccc(/C=C(\CSc2nncn2C)C(=O)OC)cc1`, for which the inhibition was 57.2% in assay [1] and 62.4% in assay [2].

In turn, `CCOC(=O)/C(=C/c1cccc(F)c1)CSc1nncn1C` registered an IC50 in assay [3] of 3.88 µM. Also, the inhibition was found to be 20.8% in assay [1] and 78.6% in assay [2].

As to `CCOC(=O)/C(=C/c1ccc(C(C)C)cc1)CSc1nc(C)cc(C)n1`, the figures for the inhibition in assay [1] and in assay [2] were 44.1% and 77.4%, respectively.

Regarding `COC(=O)/C(=C/c1ccc(OC)cc1)CSc1nc(C)cc(C)n1`, the inhibition in assay [1] came out at 65.3%; in assay [2], 80.2%.

For the compound `CCOC(=O)/C(=C/c1cccc(Cl)c1)CSc1nc2ccccc2o1`, the inhibition in assay [1] is 50%; in assay [2], 76.7%.

In turn, `COC(=O)/C(=C/c1ccc(C(F)(F)F)cc1)CSc1nc2ccccc2o1` had an IC50 in assay [3] of 2.95 µM. In addition, the inhibition in assay [1] was determined as 39%; in assay [2], 81.9%.

In the case of `COC(=O)/C(=C/c1ccc(F)cc1)CSc1nc(C)cc(C)n1`, the inhibition came out at 50.7% in assay [1] and 71% in assay [2].

Turning to `COC(=O)/C(=C/c1ccc(C(F)(F)F)cc1)CSc1nc2ccccc2s1`, the inhibition was determined as 51.4% in assay [1] and 77.5% in assay [2].

Regarding `COC(=O)/C(=C/c1ccc2ccccc2c1)CSc1nc2ccccc2o1`, the midpoint of inhibition in assay [3], the IC50, lay at 4.34 µM. Also, the values for the inhibition in assay [1] and in assay [2] were 1% and 78.4%, respectively.

Regarding `COC(=O)/C(=C/c1ccc2ccccc2c1)CSc1nc(C)cc(C)n1`, the inhibition in assay [1] stood at 46.3%; in assay [2], 73.5%.

With `COC(=O)/C(=C/c1ccc(OC)cc1)CSc1nc2ccccc2o1`, the 50% inhibitory concentration (IC50) in assay [3] stood at 4.76 µM. Besides, the inhibition in assay [1] is 2%; in assay [2] it was 77.1%.

Consider `CCOC(=O)/C(=C/c1ccc(Br)cc1)CSc1nc2ccccc2o1`, for which the inhibition in assay [1] is 54.3%; in assay [2] it was 64.7%.

Compound `COC(=O)/C(=C/c1ccc2ccccc2c1)CSc1nc2ccccc2s1` returned an IC50 in assay [3] of 2.93 µM. Further, the values for the inhibition in assay [1] and in assay [2] were 28.8% and 75.1%, respectively.

On to `COC(=O)/C(=C/c1ccc(Cl)cc1)CSc1nc2ccccc2o1`, for which the results for the inhibition in assay [1] and in assay [2] were 42.7% and 74.8%, respectively.

For the compound `CCOC(=O)/C(=C/c1ccc(C(C)C)cc1)CSc1nc2ccccc2o1`, the inhibition was found to be 47% in assay [1] and 81% in assay [2].

`COC(=O)/C(=C/c1ccc(Cl)cc1)CSc1nc(C)cc(C)n1`: the inhibition in assay [1] was 50.7%; in assay [2], 53.5%.

(Values after ChEMBL document CHEMBL3232934, “Synthesis of thio-heterocyclic analogues from Baylis-Hillman bromides as potent cyclooxygenase-2 inhibitors” (Bioorg Med Chem Lett, 2014).)
